Experimental data as given in patent US7361371B2, “Extract of petasites japonicus having neuroprotective effect and antioxidant activity” (Industry & Acacemic Cooreration in Chungnam National …, priority 2003, dated 2008).

Columns and labels:
[1] = system: lipid peroxidation in the brain of a mouse; assay: Inhibition of Fe2+/ascorbic acid-induced lipid peroxidation (TBARS) in mouse brain homogenate; format: biochemical; settings: Fe2+ 0.2 mM / ascorbic acid 25 mM, 37° C., 30 minutes, TBARS at 533 nm
Description: Concretely, the brain of an ICR male mouse (22.5±2.5 g, 6 to 8 weeks old) was removed and washed with 0.15 M KCl solution containing 2 mm EDTA. The washed brain was ground using a tissue homogenizer (Teflon pestle). To 1 ml of the ground brain, 1 ml of 8.1% SDS, 2 ml of 20% acetic acid and 1 ml of 0.75% thiobarbituric acid (TBA) were added. The resulting mixture was boiled, cooled in ice for 30 minutes and centrifuged at 14,000 rpm for 10 minutes to obtain the supernatant. To the supernatant, 1 ml of each of the various solvent fractions of Petasites japonicus from Example 1 was added and Fe^2+ 0.2 mM and ascorbic acid 25 mM were added. The resulting mixture was thoroughly mixed while stirring at 37° C. After 30 minutes, to the mixture, 15% trichloroacetic acid (TCA) and 0.75% TBA were added in the same volume as the mixture. The reaction was boiled for 15 minutes, stored in ice for 5 minutes and centrifuged at 3,000 rpm for 10 minutes to remove corpuscolates. The supernatant was taken and measured for absorption at 533 nm (Bidlack, W. T., and Tappel, A. L., Lipids, 1973, 8, 177-182). Malondialdehyde (Gutteridge, J. M. C., Analytical Biochemistry, 1975, 69, 518-526) produced by hydrolysis of 1,1,3,3,-tetraethoxypropane) was used for calibration.
Asample: absorption of a mixture of brain hydrogenate, ascorbic acid/Fe^2+ and Petasites japonicus extract at 533 nm, […]

glutathione (GSH) = format: in vivo, mouse; settings: KA administered alone
Description: About 0.2 g of brain tissue from each brain was put into cold 6% metaphosphoric acid solution and crushed using a cold ceramic percussion motor. The crushed solution was centrifuged at 4° C., 27,000 g for 20 minutes. The supernatant was taken. To 0.05 Ml of the supernatant, 0.39 Ml of 100 mM phosphate buffer (pH 7.4) containing 5 mM EDTA, 0.025 ml of 10 mM DTNB (5,5-dithiobis-(2-nitrobenzoic acid)) and 0.08 ml of 5 mM NADPH were added and equilibrated at 25° C. for 3 minutes. Then, 2 units of glutathione (GSH) reductase was added thereto to initiate a reaction. The formation of 2-nitro-5-thiobenzoic acid was monitored by measuring the adsorption at 412 nm using a UV/VIS spectrophotometer (Roberts, J. C. and Francetic, D. J., Analytical Biochemistry, 1993, 211, 183-187; Raymond, C. et al., Journal of Nutrition, 1995, 125, 3062-3070). The total GSH amount contained in a sample was determined from a standard curve constructed by plotting the adsorption at 412 nm versus the known amount of GSH. The amount of GSH was shown by an average±S.E.M of data obtained by performing the experiment using 4 to 8 mice 3 times.

[2] = Change in body weight and brain weight of mice
Description: (§1) Male ICR mice (22.5±2.5 g, 6 to 8 weeks old) were freely fed with solid feed for experimental animals (SamYang Co. Korea) in a polycarbonate cage (5 animals per cage). The mice were bred under conditions including a temperature and a relative humidity maintained at 23±3° C. and 60±10%, respectively, a light-dark cycle of 12 hours and illumination of 150 to 200 Lux. Only the animals which had been judged to be healthy during the acclimation period were randomly assigned to groups for the experiment. The breeding and experiment of animals were performed according to Guide for care and use of laboratory animal (National Institutes of Health Guidelines, 1985, 85-23). The groups of mice were unspecifically grouped and the body weight was measured every day. […] After the KA injection, the behavioral change of the mice was monitored by the method of Kondo et al. (Journal of Cerebral Blood Flow and Metabolism, 1997, 17, 241-256). Also, on the next day after the KA injection, the brains were removed from the mice, frozen in liquid nitrogen and stored at −80° C. for 48 hours at maximum until used.

[3] = system: ICR mice (KA-induced oxidative neurotoxicity); assay: Fatality rate of mice after kainic acid (KA) injection; format: in vivo, mouse
Description: KA, and KA and the butanol fraction of Petasites japonicus were administered and the fatality rate was measured.
The fractions were subjected to the same procedures as described above to measure the fatality rate.

[4] = system: lipid peroxidation in brain tissue; assay: KA-induced lipid peroxidation (TBARS amount) in brain homogenate of treated mice; format: in vivo, mouse; settings: KA alone, or pre-treatment with butanol fraction 400 mg/kg, Fraction I or Fraction II
Description: Concretely, the brains were removed from mice
Brain tissue from each brain was crushed in 0.25M sucrose solution and the crushed brain homogenate was measured for the TBARS amount contained therein.

[5] = system: ICR mice (neurotoxic behavior induced by KA); assay: Neuronal behavior change (tail arch, tremor, seizure) after KA; format: in vivo, mouse; settings: KA 44 mg/kg, fraction I or II 200 mg/kg
Description: as §1

[6] = system: pyramidal cells in CA1 and CA3 sites of the hippocampus; assay: Tissue biopsy: surviving nerve cells in hippocampus after KA; format: in vivo, mouse; settings: brain removed on the next day after KA; butanol fraction pretreated
Excerpt: Also, the brain removed on the next day after the administration of KA was subjected to a tissue biopsy to examine damage of pyramidal cells in CA1 and CA3 sites of the hippocampus.

glutathione peroxidase = format: in vivo, mouse; settings: KA alone or butanol fraction pre-administered; FIG. 6a
[7] = KA 44 mg/kg, fraction I or II 200 mg/kg
[8] = KA 50 mg/kg, butanol fraction 400 mg/kg

O=C1O[C@H]([C@@H](O)CO)C(O)=C1O [Ascorbic acid]
IC50 (inhibition of lipid peroxidation) [1]: 790 µg/mL

C=C(C)[C@H]1CN[C@H](C(=O)O)[C@H]1CC(=O)O [KA, kainic acid]
Total GSH amount in the brain tissue (glutathione (GSH)): 20%
Body weight change [2, 7]: 0.39 ± 0.29 g
Brain weight [2, 7]: 0.327 ± 0.0098 g
Final body weight [2, 7]: 29.88 ± 0.86 g
Initial body weight [2, 7]: 29.49 ± 0.91 g
Body weight change [2, 8]: 0.95 ± 0.385 g
Brain weight [2, 8]: 0.346 ± 0.0038 g
Final body weight [2, 8]: 32.34 ± 0.58 g
Initial body weight [2, 8]: 31.39 ± 0.49 g
Fatality rate ([3]; Exp. Group 1: KA 50 mg/kg intraperitoneal, butanol fraction 400 mg/kg oral once per day for 4 days before KA): 54%
Fatality rate ([3]; Exp. Group 2: KA 50 mg/kg intraperitoneal, butanol fraction 150 mg/kg oral once per day for 4 days before KA): 63.6%
Fatality rate [3, 7]: 54%
TBARS content of brain homogenate (in words) [4]: increased
Tail arch (upper value, unit not given) ([5]; stage 1): 12.4 ± 4.7
Tail arch (value in brackets) ([5]; stage 1): (100%)
Tremor (upper value, unit not given) ([5]; stage 2): 16.7 ± 6.1
Tremor (value in brackets) ([5]; stage 2): (100%)
Seizure (upper value, unit not given) ([5]; stage 3): 18.9 ± 19.5
Seizure (value in brackets) ([5]; stage 3): (100%)
Surviving nerve cells in the CA1 site of the hippocampus [6]: 18.5%
Surviving nerve cells in the CA3 site of the hippocampus [6]: 8.9%
Glutathione peroxidase activity (in words) (glutathione peroxidase): reduced
